Measured values as given in patent publication US12139617B2, “Polymeric fluorophores, compositions comprising the same, and methods of preparing and using the same” (North Carolina State University, priority 2017, dated 2024).

Columns and labels:
[1] = Fluorescence quantum yield of F1-F3 and D1-D3; format: physicochemical
Source text: […] […] These comparisons indicate the absence of dye-dye quenching resulting from the aggregation for F1 and F2 in μM aqueous solutions. […] Also, a smaller phthalocyanine skeleton (e.g. with methyl instead of heptyl as peripheral groups) may be encapsulated with the current length of copolymer successfully.

[2] = Absorption and emission spectra of copolymers F1-F3 and fluorophores D1-D3; format: physicochemical
Source text: The target dye-loaded copolymers F1-F3 were then subject to investigations of their spectroscopic properties in both organic solvents and aqueous solution. […] Attaching to the 120-kDa amphiphilic copolymer drastically enhances the water solubility of BODIPY D1 and chlorin D2 without strong perturbation on the spectroscopic properties. Emission band for F1 and F2 in water remains the same as the ones measured in organic solutions, showing minimal dye-dye interaction is involved in aqueous solution of F1 and F2 at μM concentration. […] This negative result may be because of the inappropriate size of the copolymer backbone. Polymer larger in size may be required to encapsulate large hydrophobic fluorophores like the phthalocyanine D3.
All chemicals obtained commercially were used as received unless otherwise noted. Reagent-grade solvents (CH2Cl2, THF, methanol) and HPLC-grade water were used as received. NMR data was measured in a solution of CDCl3 unless otherwise noted. Noncommercial compounds 1, 2, and 4 were prepared following literature procedures. […] Samples were detected with Agilent 1260 infinity refractive index detector. Absorption spectra were measured on Agilent 8453 and Shimadzu UV1800 instruments using dilute (μmolar) solutions of the compound in UV transparent (e.g., quartz) cuvettes versus a solvent blank at room temperature.

| Compound | Φf (fluorescence quantum yield) ([1]; CH2Cl2) | absorption wavelength [2] | Φf (fluorescence quantum yield) ([1]; Toluene) |
| --- | --- | --- | --- |
| Cc1cc(C)c(-c2c3nc(c(-c4ccc(C(=O)NN)cc4)c4ccc(cc5nc(cc6ccc2[nH]6)CC5(C)C)[nH]4)C=C3)c(C)c1 [Compound D2, 5-[4-(N-Aminocarbamoyl)phenyl]-10-Mesityl-18,18-dimethylchlorin] | 0.19 | 640 nm |  |
| CCCCCCCc1cc2c(cc1CCCCCCC)-c1nc-2nc2[nH]c(nc3nc(nc4[nH]c(n1)c1cc(CCCCCCC)c(CCCCCCC)cc41)-c1cc(C#Cc4ccc(CC(=O)NN)cc4)ccc1-3)c1cc(CCCCCCC)c(CCCCCCC)cc21 [Compound D3, 2-[4-(N-Aminocarbamoyl)methylphenylethynyl]-9,10,16,17,23,24-hexaheptylphthalocyanine] |  | 700 nm | 0.68 |
